Assay results as given in publication PMC6803673, “Molecular features of the UNC-45 chaperone critical for binding and folding muscle myosin” (Nature Communications, 2019).
Positions count from the first letter of the chain named. Names may count otherwise.

How the values were obtained:
[1] = target: T1, MHC-B (myosin II heavy chain isoform B, UNC-54) motor domain (Caenorhabditis elegans, UniProt P02566); assay: stopped-flow single turnover, intrinsic tryptophan fluorescence; assay type: biochemical; conditions: no actin; 20 mM MOPS pH 7.0, 25 mM KCl, 5 mM MgCl2, 20 °C
T1 construct: motor domain, residues 1-790, C-terminal His6-tag, co-expressed with C. elegans UNC-45 in High Five insect cells, monomeric
T1 sequence (P02566 1-790): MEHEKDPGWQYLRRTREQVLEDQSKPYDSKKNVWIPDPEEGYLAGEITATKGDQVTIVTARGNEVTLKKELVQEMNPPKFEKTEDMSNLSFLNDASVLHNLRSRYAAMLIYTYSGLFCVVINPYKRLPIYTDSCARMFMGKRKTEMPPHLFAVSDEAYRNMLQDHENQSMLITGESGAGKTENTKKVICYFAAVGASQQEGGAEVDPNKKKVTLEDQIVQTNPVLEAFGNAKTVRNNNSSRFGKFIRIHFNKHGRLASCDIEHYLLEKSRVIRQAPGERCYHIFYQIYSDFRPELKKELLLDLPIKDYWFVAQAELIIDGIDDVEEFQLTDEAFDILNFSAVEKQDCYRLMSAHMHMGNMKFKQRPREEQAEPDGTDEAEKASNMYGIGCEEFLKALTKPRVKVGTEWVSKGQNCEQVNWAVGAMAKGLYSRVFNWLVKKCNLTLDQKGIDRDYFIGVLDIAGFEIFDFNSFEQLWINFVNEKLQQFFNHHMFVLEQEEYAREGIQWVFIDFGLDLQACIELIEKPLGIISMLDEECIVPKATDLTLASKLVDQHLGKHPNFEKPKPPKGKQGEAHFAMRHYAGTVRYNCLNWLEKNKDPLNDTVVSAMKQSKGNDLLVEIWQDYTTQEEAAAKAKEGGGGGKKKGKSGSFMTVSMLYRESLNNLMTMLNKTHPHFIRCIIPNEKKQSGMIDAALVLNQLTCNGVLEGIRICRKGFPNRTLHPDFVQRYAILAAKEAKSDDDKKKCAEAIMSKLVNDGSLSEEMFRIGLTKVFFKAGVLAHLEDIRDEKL

[2] = target: T1, MHC-B (myosin II heavy chain isoform B, UNC-54) motor domain; assay: X-ray crystal structure, […] A; conditions: nucleotide-binding pocket of the motor domain; crystals pH 6.5, 4 °C
[3] = target: T2, UNC-45 wild type (bacterial) (C. elegans, UniProt G5EG62 1-961); assay: SEC; myosin incubated at 27 °C for 60 min, then with UNC-45 (wild-type or ts-mutant) on ice for 60 min; S200 PC 3.2 column, 20 mM Tris pH 8.0, 150 mM NaCl; conditions: both partners purified
T2 construct: UNC-45, C. elegans myosin chaperone, wild type; also called wt UNC-45; wt chaperone; source: E. coli BL21(RIL), purified (NiNTA, anion exchange, SEC)
T2 sequence: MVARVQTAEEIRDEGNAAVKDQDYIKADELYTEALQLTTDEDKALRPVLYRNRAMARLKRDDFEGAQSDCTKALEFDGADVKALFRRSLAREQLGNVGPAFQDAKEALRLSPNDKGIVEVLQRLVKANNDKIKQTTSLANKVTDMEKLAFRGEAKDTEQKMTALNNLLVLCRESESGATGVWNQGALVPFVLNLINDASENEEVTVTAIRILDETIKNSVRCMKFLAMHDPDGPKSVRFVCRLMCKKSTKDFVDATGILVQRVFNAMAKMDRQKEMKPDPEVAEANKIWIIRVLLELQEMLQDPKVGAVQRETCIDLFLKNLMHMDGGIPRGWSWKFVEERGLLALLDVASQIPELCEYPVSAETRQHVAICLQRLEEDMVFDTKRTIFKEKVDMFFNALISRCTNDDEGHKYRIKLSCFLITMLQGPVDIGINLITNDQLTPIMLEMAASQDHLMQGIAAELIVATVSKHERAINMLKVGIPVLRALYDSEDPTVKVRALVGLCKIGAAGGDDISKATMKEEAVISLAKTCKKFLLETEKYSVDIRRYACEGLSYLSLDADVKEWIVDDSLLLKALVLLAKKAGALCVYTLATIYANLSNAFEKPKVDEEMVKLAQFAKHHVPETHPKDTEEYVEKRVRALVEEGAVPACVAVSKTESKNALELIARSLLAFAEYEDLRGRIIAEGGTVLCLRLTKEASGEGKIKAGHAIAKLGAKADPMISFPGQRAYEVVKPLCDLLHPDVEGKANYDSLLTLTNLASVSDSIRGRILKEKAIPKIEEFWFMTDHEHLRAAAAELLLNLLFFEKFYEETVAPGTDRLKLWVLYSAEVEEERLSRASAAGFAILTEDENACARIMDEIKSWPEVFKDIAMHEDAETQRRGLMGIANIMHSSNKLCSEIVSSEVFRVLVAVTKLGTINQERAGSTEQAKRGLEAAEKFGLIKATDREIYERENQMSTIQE

[4] = target: the molecule itself; assay: crystal structure; UNC-45 mutant crystals grown by sitting drop vapor diffusion at 19 °C

Nc1ncnc2c1ncn2[C@@H]1O[C@H](COP(=O)(O)OP(=O)(O)OP(=O)(O)O)[C@@H](O)[C@H]1O [ATP]
stopped-flow single turnover, intrinsic tryptophan fluorescence [1]: Upon ATP binding to the myosin motor domain Trp fluorescence is enhanced

Nc1ncnc2c1ncn2[C@@H]1O[C@H](COP(=O)(O)OP(=O)(O)O)[C@@H](O)[C@H]1O [ADP]
X-ray crystal structure, 1.9 A [2]: we crystallized MHC-B and determined the structure of the ADP-bound state

B1: MHC-B muscle myosin motor domain (residues 1–790) (domain or fragment, C. elegans, UniProt P02566 1-790, looked up)
chain: T1 sequence (P02566 1-790)
notes: C. elegans body wall muscle myosin II heavy chain isoform B (MHC-B, UNC-54), motor domain, residues 1-790, cloned from C. elegans cDNA; In the SEC assays with UNC-45 the protein was heat-damaged (unfolded or misfolded) at 27 °C; Two vectors (pFastBac DUAL, pACEBac1) encode the same 1-790 His6 protein; also called myosin II heavy chain isoform B; UNC-54; source: High Five insect cells, …
binding result [3]: binds

B2: UNC-45 G427E (ts mutant, bacterial) (natural protein, C. elegans, UniProt G5EG62 1-961, looked up)
chain: T2 sequence with G427E
notes: UNC-45, C. elegans, temperature-sensitive point mutant G427E; the SEC assays used the native protein; also called tsG427E; source: E. coli BL21(RIL), purified (NiNTA, anion exchange, SEC); SeMet protein from B834-DE3 cells
binding result [4]: binds
